Reference: US20260317304A1, “TEAD INHIBITORS AND METHODS OF USE” (Sporos BioDiscovery, Inc., priority 2022, published 2026)

Key:
[1] = system: NCI-H226 cells; assay: Proliferation and cell viability assay, CellTiter-Glo 2.0 (CTG); type: cell-based, human; conditions: 144 hrs
Method: (§1) Cell proliferation of a TEAD dependent NF2-null mesothelioma cell line, NCI-H226 was assayed using two different protocols. Results were confirmed in two different TEAD-non-dependent lung cancer cell lines, H23 and H28, were used as non-responsive controls, as indicated:
a) CellTiter-Glo® 2.0 (Promega #G9243). The effect of the TEAD inhibitors disclosed herein on cell proliferation was determined in TEAD1-genetically dependent cell line NCI-H226 (responder cell line) and TEAD-independent cell lines (NCI-H23, HEK293T), as non-responder, negative control. Cells were seeded in 96-well plates (Thermo Scientific #167008) in growth media (RPMI-1640, Gibco #61870-010) for NCI-H226 and NCI-H23 or DMEM (Gibco #31966-021, HEK293T) with […] Heat Inactivated Fetal Bovine Serum (Gibco 10500-064) at 800 (NCI-H226 and HEK-293T) or 2000 (NCI-H23) cells per well at 37° C., […], humidified incubator; 24 hours later, fresh growth media containing test compound or DMSO vehicle was added and incubated with the cells for 144 hrs. TEAD inhibitor stocks were made at a 1000× fold excess in DMSO, and a dose response test compound dose range of 10,000 to 0.1 nM was used. Each treatment was carried out in triplicate. After 144 hrs of treatment, relative cell viability numbers were determined using the CellTiter-Glo 2.0 assay following the manufacturer's instructions. Test plates and CellTiter-Glo 2.0 reagent were allowed to equilibrate to room temperature. CellTiter-Glo 2.0 reagent was added at 1:1 reagent to media ratio to the 96-well cell plates, plates were placed on a plate shaker for 2 minutes and then incubated at room temperature for a further 10 minutes to allow complete cell lysis to occur. The mix was then transferred to white, 96-well luminometer assay plates (Greiner Bio One #655075). Luminescence was quantified using a CLARIOStar Plus multi-mode plate reader (BMG Labtech) in luminescence detection mode with the recommended settings (ultra-Glo pre-set: emission 545-50 nm with autofocus and enhanced dynamic range on). Relative cell density was expressed as a function of inhibitor concentration, with respect to DMSO-only control wells. Data where plotted using GraphPad Prism and IC50 values for the biological effect were calculated using the EC50 non-linear fit function using a sigmoidal, 4-parameter logistic, least squares fit with no constraints.
(§2) For IC50 and EC50 data “A” indicates a value of less than 0.2 μM; the symbol “B” indicates a value in the range of from 0.2 μM up to 1 μM; and the symbol “C” indicates a value of greater than 1 μM. ND: no data.

[2] = system: NCI-H226 cells; assay: Proliferation and cell viability assay, Cell Titer One; type: cell-based, human; conditions: Cell Titer One assay, 6 days
Method: as §1
b) Cell Titer One (Promega, #G3582). The effect of the TEAD inhibitors disclosed herein on cell proliferation was also determined using the Promega Substrate Cell Titer Aqueous One Solution Reagent. The TEAD inhibitors were evaluated for the effects on cell proliferation responder (H226) and non-responder negative control cancer cell lines (CAMA1, H28), as well as non-transformed normal human cells (HUVEC, NHDF). Dissociated cells were resuspend in media (depending on cell line, either in DMEM, RPMI, or EMEM all with 10% FBS, with gentamicin as an antibiotic). Cells were seeded at 100 μL/well at 750 cells per well in 96-well plates and allowed to settle and attach. After an incubation of 24 hrs (37° C., 5% CO2, humidified incubator), 100 μL of test compound-containing media was added. A dilution series of 2000× concentrated stock of test compounds was prepared in DMSO, for final concentrations from 0.1 to 10,000 nM. After addition of test compound-containing media, cells were incubated for 6 days at 37° C., 5% CO2, humidified incubators). To measure cell density, 20 μL of Promega Substrate Cell Titer 96 Aqueous One Solution Reagent (Promega, #G3582) to each well was added according to the manufacturer's instructions. Plates were incubated at 37° C. for usually 3-8 hrs, to reach in the control cells (without compound) an OD of 1.5 at 490 nm. The OD was measured using Vmax [Molecular Devices] spectrophotometer plate reader. Media only-wells were used as background controls and cell densities normalized to DMSO vehicle control. EC50 were taken as the concentration achieving 50% of maximal growth inhibition.
as §2

[3] = Homo sapiens, NCI-H226, responder cell line

| SMILES | EC50 [1, 3] [nM] | IC50 [2] [nM] | IC50 ([2]; Homo sapiens, NCI-H226, 144 h) [nM] | EC50 ([1]; responder cell line) [nM] |
| --- | --- | --- | --- | --- |
| CC1(c2ccc(Nc3ccc(C(F)(F)F)cc3)c(Br)c2)CCNC1=O (centres unmarked) [Compound 24] | < 200 | – | – | – |
| Cn1cnc(-c2cc([C@@]3(C)C(=O)CNC3=O)ccc2Nc2ccc(C(F)(F)F)cc2)c1 (stereo in doubt) [Compound 17, 3-methyl-3-(3-(1-methyl-1H-imidazol-4-yl)-4-((4-(trifluoromethyl)phenyl)amino)phenyl) pyrrolidine-2,4-dione] | < 200 | – | – | – |
| Cn1cnc(-c2cc(C3(C)NC(=O)NC3=O)ccc2Nc2ccc(C(F)(F)F)cc2)c1 (single isomer, unassigned) [Compound 14, 5-methyl-5-(3-(1-methyl-1H-imidazol-4-yl)-4-((4-(trifluoromethyl)phenyl)amino)phenyl)imidazolidine-2,4-dione] | < 200 | > 1000 | – | – |
| CC(=O)c1ccc(Nc2ccc(C(F)(F)F)cc2)c(-c2cn(C)cn2)c1 [Compound 23, 1-(3-(1-methyl-1H-imidazol-4-yl)-4-((4-(trifluoromethyl)phenyl)amino)phenyl) ethan-1-one] | < 200 | – | – | – |
| Cn1cnc(-c2cc(CN3CC(=O)NC3=O)ccc2Nc2ccc(C(F)(F)F)cc2)c1 [Compound 4, 1-(3-(1-methyl-1H-imidazol-4-yl)-4-((4-(trifluoromethyl)phenyl)amino)benzyl) imidazolidine-2,4-dione] | < 200 | – | < 200 | – |
| CC1(c2ccc(Nc3ccc(C(F)(F)F)cc3)c(-c3cccnn3)c2)CCNC1=O (centres unmarked) [Compound 12, 3-methyl-3-(3-(pyridazin-3-yl)-4-((4-(trifluoromethyl)phenyl)amino)phenyl) pyrrolidin-2-one] | < 200 | – | > 1000 | – |
| Cn1cnc(-c2cc(C3(C)NC(=O)NC3=O)ccc2Nc2ccc(C(F)(F)F)cc2)c1 (racemic) [Compound 9, 5-methyl-5-(3-(1-methyl-1H-imidazol-4-yl)-4-((4-(trifluoromethyl)phenyl)amino)phenyl) imidazolidine-2,4-dione] | < 200 | – | < 200 | – |
| Cn1cnc(-c2cc(C3(C)CCNC3=O)ccc2Nc2cccc(C(F)(F)F)c2)c1 (centres unmarked) [Compound 22, 3-methyl-3-(3-(1-methyl-1H-imidazol-4-yl)-4-((3-(trifluoromethyl)phenyl)amino)phenyl) pyrrolidin-2-one] | < 200 | – | – | – |
| Cn1cnc(-c2cc([C@@]3(C)C(=O)CNC3=O)ccc2Nc2ccc(C(F)(F)F)cc2)c1 (stereo in doubt) [Compound 18, 3-methyl-3-(3-(1-methyl-1H-imidazol-4-yl)-4-((4-(trifluoromethyl)phenyl)amino)phenyl) pyrrolidine-2,4-dione] | – | – | – | < 200 |
| Cc1nnc(-c2cc(C3(C)CCNC3=O)ccc2Nc2ccc(C(F)(F)F)cc2)o1 (single isomer, unassigned) [Compound 8, 3-methyl-3-(3-(5-methyl-1,3,4-oxadiazol-2-yl)-4-((4-(trifluoromethyl)phenyl)amino)phenyl) pyrrolidin-2-one] | < 200 | – | 200 to 1000 | – |
| Cn1cnc(-c2cc(C3(C)C(=O)NCC3O)ccc2Nc2ccc(C(F)(F)F)cc2)c1 (centres unmarked) [Compound 19, 4-hydroxy-3-methyl-3-(3-(1-methyl-1H-imidazol-4-yl)-4-((4-(trifluoromethyl)phenyl)amino)phenyl) pyrrolidin-2-one] | 200 to 1000 | – | – | – |
| Cn1cnc(-c2cc(CN3CCNC3=O)ccc2Nc2ccc(C(F)(F)F)cc2)c1 [Compound 3, 1-(3-(1-methyl-1H-imidazol-4-yl)-4-((4-(trifluoromethyl)phenyl)amino)benzyl)imidazolidin-2-one] | < 200 | – | < 200 | – |
| CC1(c2ccc(Nc3ccc(C(F)(F)F)cc3)c(-c3cnccn3)c2)CCNC1=O (centres unmarked) [Compound 13, 3-methyl-3-(3-(pyrazin-2-yl)-4-((4-(trifluoromethyl)phenyl)amino)phenyl) pyrrolidin-2-one] | < 200 | – | > 1000 | – |
| Cn1cnc(-c2cc([C@@]3(C)CCNC3=O)ccc2Nc2ccc(C(F)(F)F)cc2)c1 (single isomer, unassigned) [Compound 6, 3-methyl-3-(3-(1-methyl-1H-imidazol-4-yl)-4-((4-(trifluoromethyl)phenyl)amino)phenyl)pyrrolidin-2-one] | – | 200 to 1000 | – | < 200 |
| CC1(c2ccc(Nc3ccc(C(F)(F)F)cc3)c(-c3ncco3)c2)CCNC1=O (centres unmarked) [Compound 10, 3-methyl-3-(3-(oxazol-2-yl)-4-((4-(trifluoromethyl)phenyl)amino)phenyl) pyrrolidin-2-one] | < 200 | – | < 200 | – |
| Cn1cnc(-c2cc(C3(C)C(=O)CNC3=O)ccc2Nc2ccc(C(F)(F)F)cc2)c1 (racemic) [Compound 16, 3-methyl-3-(3-(1-methyl-1H-imidazol-4-yl)-4-((4-(trifluoromethyl)phenyl)amino)phenyl) pyrrolidine-2,4-dione] | < 200 | – | – | – |
| Cc1nnc(-c2cc([C@@]3(C)CCNC3=O)ccc2Nc2ccc(C(F)(F)F)cc2)o1 (single isomer, unassigned) [Compound 7, 3-methyl-3-(3-(5-methyl-1,3,4-oxadiazol-2-yl)-4-((4-(trifluoromethyl)phenyl)amino)phenyl) pyrrolidin-2-one] | 200 to 1000 | – | < 200 | – |
| Cn1nnc(-c2cc(C3(C)CCNC3=O)ccc2Nc2ccc(C(F)(F)F)cc2)n1 (racemic) [Compound 11, 3-methyl-3-(3-(2-methyl-2H-tetrazol-5-yl)-4-((4-(trifluoromethyl)phenyl)amino)phenyl) pyrrolidin-2-one] | < 200 | – | < 200 | – |
